Assay results as given in patent US20060193781A1, “Magnetic resonance imaging of metal concentrations” (priority 2002, published 2006).
Where two headings read alike, the source gives them in different places.

Legend:
[1] = Fluorine nuclear relaxation times T1 and T2 and chemical shift of 5F-BAPTA with and without zinc, in water and octanol; format: physicochemical
Experimental: All fluorine NMR spectra were collected with a 400 MHz Oxford/Varian Unity Plus spectrometer at 25° C. The nominal 90° pulse width was 7.8 μsec.
An equivalent volume (0.7 ml) n-octanol was added, and the mixture was shaken vigorously. The organic and aqueous phases were separated by pipette and placed in NMR tubes. To the octanol solution was added 0.1 ml deuterated methanol to provide an NMR lock signal.

[2] = for T2 bound / T2 free: 2 mM complexing agent, 400 MHz, 25° C.
Experimental: All fluorine NMR spectra were collected with a 400 MHz Oxford/Varian Unity Plus spectrometer at 25° C. The nominal 90° pulse width was 7.8 μsec. Transverse relaxation times were determined by the best fit of data collected using the Carr-Purcell-Meiboom-Gill sequence supplied with the spectrometer.
A 1 M solution of Ultra Pure ZnCl2 (Sigma) was prepared and diluted in a serial fashion to produce intermediate stock solutions of concentration 100 mM and 10 mM in water. A 200 mM solution of 5-T-BAPTA (Molecular Probes) was prepared and added to aliquots of either zinc solution, as appropriate, in sufficient quantity to yield a final, fixed concentration of 2 mM of the complexing agent.

[3] = aqueous solution of the zinc complex
[4] = aqueous solution without zinc, HEPES buffer, 400 MHz, 25° C.
[5] = Sample 2: ZnCl2 0.5 mM, MgCl2 1.5 mM

| SMILES | change of fluorine transverse relaxation time upon complexation with Zn^+2 [1] | T1 value [1, 3] | T2 value [1, 3] | T1 value [1, 4] | T2 value [1, 4] | T2 value ([1]; zinc complex in octanol) | T1 value ([1]; zinc complex in octanol solution) | T2 bound ([2]; Sample 1: ZnCl2 2.0 mM, MgCl2 1.0 mM, CaCl2 2.0 mM) | T2 of the complex (Sample 1) relative to T2 of the free complexing agent (Sample 3) ([2]; Sample 1 vs Sample 3) | T2 bound [2, 5] | T2 free [2, 5] | T2 free ([2]; Sample 3: ZnCl2 0 mM, MgCl2 1.65 mM, CaCl2 3.35 mM) | T2 bound ([2]; Sample 4: ZnCl2 3.5 mM, MgCl2 0.5 mM, CaCl2 1.0 mM) |
| --- | --- | --- | --- | --- | --- | --- | --- | --- | --- | --- | --- | --- | --- |
| O=C(O)CN(CC(=O)O)c1ccc(F)cc1OCCOc1cc(F)ccc1N(CC(=O)O)CC(=O)O [5F-BAPTA, 1,2-bis-(2-amino-5-fluorophenoxy)ethane-N,N,N′,N′-tetraacetic acid] | large reduction | 0.82 ± 0.01 s | 0.0248±0.0003 | 0.82 ± 0.01 s | 0.080 ± 0.003 s | 0.013 ± 0.001 s | 0.53 ± 0.01 s |  |  |  |  |  |  |
| O=C(O)CN(CC(=O)O)c1ccc(C(F)(F)F)cc1OCCOc1cc(C(F)(F)F)ccc1N(CC(=O)O)CC(=O)O [5T-BAPTA, 1,2-bis-(2-amino-5-trifluoromethylphenoxy)ethane-N,N,N′,N′-tetra acetic acid] |  |  |  |  |  |  |  | 0.14 ± 0.03 s | ⅕ | 0.265 ± 0.025 s | 0.387 ± 0.012 s | 0.763 ± 0.032 s | 0.216 ± 0.007 s |
